Measurements: US12414995B2, “Bifunctional compounds comprising Apcin-A and their use in the treatment of cancer” (Northwestern University, priority 2019, dated 2025)
Values belong to the compound of their own block, whether it stands above or below them.

Experiments:
Cdc20 [1] = molecular target: T1, Cdc20 (Homo sapiens, UniProt Q12834); assay: Cdc20 degradation by Western blotting in MCF-7 cells; conditions: various dosages
Cdc20 [2] = molecular target: T1, Cdc20; assay: Cdc20 ubiquitylation (immunoprecipitation, anti-ubiquitin immunoblot) in MDA-MB-231 cells; conditions: 2 μM, with MG-132
MDA-MB-231 cells [3] = assay: Cell cycle analysis by flow cytometry in MDA-MB-231 cells; format: cell-based; conditions: for mitotic arrest: double-thymidine synchronized
Procedure: . In this example, cell cycle analysis of MDA-MB-231 cells was performed after CP5V treatment. The MDA-MB-231 cells were initially synchronized by double-thymidine followed by treatment with CP5V for 16 hours. Cell cycle profile was then measured by flow cytometry.
(§1) Flow cytometry analysis. MDA-MB-231 and MDA-MB-435 cells were plated in a 6-cm dish and double-synchronized for 18 h and then 15 h with a 9-hour release with fresh medium between them. The cells were released and treated with DMSO, Apcin and CP5V at indicated concentrations for 24 h. After treatment, the cells were collected and stained with propidium iodide (PI) staining buffer and analyzed by flow cytometry.
(§2) Given that Cdc20-APC/C regulates mitotic progression through proteolysis of securin and cyclin B1, CP5V-mediated degradation of Cdc20 was examined for resultant changes of the protein level of securin and cyclin B1. […]. […]

MDA-MB-435 cells [4] = assay: Cell cycle analysis by flow cytometry in MDA-MB-435 cells; format: cell-based; conditions: for mitotic arrest: synchronized
Procedure: as §1, §2

Cdc27 = Cdc27 protein level by Western blot in MDA-MB-231 cells (specificity); format: cell-based; conditions: indicated dosages, 10 hours
Procedure: (§3) MDA-MB-231 cells treated with CP5V at indicated dosages for 10 hours were harvested for Western Blot.
To test the specificity for CP5V in targeting Cdc20, the dosage experiment based on MDA-MB-231 cells was repeated and the alteration of protein levels for Cdc20 and Cdc27, another core subunit of anaphase-promoting complex, was measured.

4T1 xenograft tumor = assay: Mouse 4T1 xenograft model; conditions: 100 mg/kg intraperitoneally twice per week
Cdc20 mRNA = assay: Cdc20 RNA level by qRT-PCR in MDA-MB-231 cells; format: cell-based; conditions: indicated dosages, 10 hours
Procedure: MDA-MB-231 cells treated with CP5V at indicated dosages for 10 hours were harvested for RNA extraction, reverse-transcription, and further qRT-PCR.
To further confirm the conclusion that the CP5V-medicated degradation is depending on the ubiquitin-proteasome system, RT-PCR was conducted to measure the alteration of Cdc20 RNA levels in response to CP5V treatment.

MDA-MB-435 eb cells [5] = system: MDA-MB-435 eb cells
cyclin B1 = assay: Cyclin B1 level by Western blotting in MDA-MB-231 cells; format: cell-based; conditions: indicated dose, 10 hours
Procedure: […]. Cdc20 and cyclin-B levels were then determined by Western blotting.
as §2

MDA-MB-435 eb cells [6] = assay: cells; conditions: Homo sapiens, MDA-MB-435, read-out: growth inhibition
U2OS cells = assay: Cell survival CCK8 assay in U2OS cells; conditions: 72 hours
[7] = system: Tamoxifen-resistant breast cancer cells; assay: Endocrine response of Tamoxifen-resistant breast cancer cells; format: cell-based
MCF7 cells = assay: Clonogenic assay in MCF7 cells; conditions: 1 μM for 24 hours, then culture 2 weeks
LNCaP cells = assay: Cell survival CCK8 assay in LNCaP cells; conditions: 72 hours
22Rv1 cells = assay: Cell survival CCK8 assay in 22Rv1 cells; conditions: 72 hours
HIF1α = HIF1α accumulation by Western blot in MDA-MB-231 cells; format: cell-based; conditions: 10 hours; for HIF1α level: indicated dosages
Procedure: as §3
MDA-MB-231 cells treated with VHL Ligand 1 at indicated dosages for 10 hours and collected for WB.
Relatively high potential dosage of VHL ligand 1 (VHL1), the VHL-binding moiety offered by CP5V, causes concern if it affects HIF1α, the substrate of VHL.

MDA-MB-231 cells [8] = assay: Cell proliferation CCK8 assay in MDA-MB-231 cells; format: cell-based; conditions: Homo sapiens, 72 h, read-out: IC50 of cell growth inhibition
From the text: (§4) Cell proliferation assays.

MDA-MB-435 cells [9] = assay: Cell proliferation CCK8 assay in MDA-MB-435 cells; format: cell-based; conditions: Homo sapiens, 72 h, read-out: IC50 of cell growth inhibition
From the text: as §4

Cdc20 [10] = molecular target: T1, Cdc20; assay: Cdc20 degradation by Western blotting in MDA-MB-231 cells; conditions: MLN4924 5 μM with CP5V, 10 hours

T1 sequence (Q12834 whole entry): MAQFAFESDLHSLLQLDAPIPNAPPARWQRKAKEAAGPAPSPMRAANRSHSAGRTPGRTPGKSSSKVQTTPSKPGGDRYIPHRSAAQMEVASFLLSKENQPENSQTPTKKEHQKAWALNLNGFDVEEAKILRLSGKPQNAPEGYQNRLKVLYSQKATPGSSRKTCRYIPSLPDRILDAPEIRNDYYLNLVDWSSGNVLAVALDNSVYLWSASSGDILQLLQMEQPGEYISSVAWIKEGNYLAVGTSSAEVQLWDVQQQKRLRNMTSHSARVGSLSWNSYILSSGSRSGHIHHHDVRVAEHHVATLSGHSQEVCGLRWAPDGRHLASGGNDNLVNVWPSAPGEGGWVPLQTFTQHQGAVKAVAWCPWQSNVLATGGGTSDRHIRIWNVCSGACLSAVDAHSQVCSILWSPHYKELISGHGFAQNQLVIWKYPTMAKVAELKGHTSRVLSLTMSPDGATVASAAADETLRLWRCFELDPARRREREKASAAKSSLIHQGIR

Cdc20 protein level (degradation) (Cdc20 [1]): no degradation of Cdc20
Cdc20 ubiquitylation (Cdc20 [2]): no obvious effect
Structure (SMILES): NCCCOC(=O)NC(Nc1ncccn1)C(Cl)(Cl)Cl (centres unmarked) [Apcin-A, 3-aminopropyl (2,2,2-trichloro-1-(pyrimidin-2-ylamino)ethyl)carbamate]

Structure (SMILES): Cc1ncc([N+](=O)[O-])n1CCOC(=O)NC(Nc1ncccn1)C(Cl)(Cl)Cl (centres unmarked) [Apcin]
mitotic arrest (MDA-MB-231 cells [3]): no effect
mitotic arrest (MDA-MB-435 cells [4]): no effect

Structure (SMILES): Cc1ncsc1-c1ccc(CNC(=O)[C@@H]2C[C@@H](O)CN2C(=O)[C@H](NC(=O)CCOCCOCCOCCOCCOCCC(=O)NCCCOC(=O)NC(Nc2ncccn2)C(Cl)(Cl)Cl)C(C)(C)C)cc1 (stereo partly drawn) [CP5V, (R)-25-((2S,4R)-4-hydroxy-2-((4-(4-methylthiazol-5-yl)benzyl)carbamoyl)pyrrolidine-1-carbonyl)-26,26-dimethyl-5,23-dioxo-8,11,14,17,20-pentaoxa-4,24-diazaheptacosyl (2,2,2-trichloro-1-(pyrimidin-2-ylamino)ethyl)carbamate]
Cdc27 protein level (Cdc27): no Cdc27 protein level change
Cdc20 expression in the xenograft tumor (IHC) (4T1 xenograft tumor): decreased Cdc20 expression
Ki67 index in the tumor (IHC) (4T1 xenograft tumor): decreasing the Ki67 index
effect on mice body weight (4T1 xenograft tumor): no significant effect
expression of caspase-3 in the tumor (IHC) (4T1 xenograft tumor): did not change dramatically
liver toxicity (4T1 xenograft tumor): no significant effect
reduction of the size of the xenograft tumor compared to placebo (4T1 xenograft tumor; Balb/C mice): approximately 70%
reduction of the weight of the xenograft tumor compared to placebo (4T1 xenograft tumor; Balb/C mice): approximately 70%
Cdc20 mRNA level (Cdc20 mRNA): no significant change
Taxol-cytotoxic response of Taxol-resistant cells (MDA-MB-435 eb cells [5]; with 5 nM paclitaxel): significantly restored their Taxol-cytotoxic response
cyclin B1 level (cyclin B1): largely accumulated
inhibition at 5 µM (MDA-MB-435 eb cells [6]): > 50%
inhibition of cell growth (U2OS cells): significant inhibition of cell growth
re-sensitization to Tamoxifen [7]: re-sensitizes Tamoxifen-resistant breast cancer cells to Tamoxifen treatment
colony formation (killing of breast cancer cells) (MCF7 cells): potent efficacy in killing breast cancer cells
cells arrested in the G2/M phase (MDA-MB-231 cells [3]; 2 μM): over 40%
fraction of cells in the G0/G1 phase (MDA-MB-231 cells [3]; 2 μM, versus control cells): much lower compared to control cells
mitotic arrest (MDA-MB-231 cells [3]): induces mitotic arrest
inhibition of cell growth (LNCaP cells): significant inhibition of cell growth
cells arrested in the G2/M phase (MDA-MB-435 cells [4]; 2 μM): > 50%
fraction of cells in the G0/G1 phase (MDA-MB-435 cells [4]; 2 μM, versus control cells): much lower compared to control cells
mitotic arrest (MDA-MB-435 cells [4]): induces mitotic arrest
inhibition of cell growth (22Rv1 cells): significant inhibition of cell growth
HIF1α level (HIF1α): no obvious alteration of HIF1α
IC50 (MDA-MB-231 cells [8]): 2600 nM
IC50 (MDA-MB-435 cells [9]): 1990 nM

Structure (SMILES): NS(=O)(=O)OC[C@@H]1C[C@@H](n2ccc3c(N[C@H]4CCc5ccccc54)ncnc32)C[C@@H]1O [MLN4924]
effect on CP5V-mediated Cdc20 degradation (Cdc20 [10]): inhibited the degradation of Cdc20 caused by CP5V

Structure (SMILES): Cc1ncsc1-c1ccc(CNC(=O)[C@@H]2C[C@@H](O)CN2C(=O)[C@@H](N)C(C)(C)C)cc1 [VHL ligand 1]
concentration that induced HIF-α accumulation (HIF1α): ≥ 1 µM
HIF1α level (HIF1α): significant HIF1α is accumulated

Structure (SMILES): CC(=O)O[C@H]1C(=O)[C@@]2(C)[C@H]([C@H](OC(=O)c3ccccc3)[C@]3(O)C[C@H](OC(=O)[C@H](O)[C@@H](NC(=O)c4ccccc4)c4ccccc4)C(C)=C1C3(C)C)[C@]1(OC(C)=O)CO[C@@H]1C[C@@H]2O [paclitaxel, reference compound]
cells survived (MDA-MB-435 eb cells [5]; 5 nM paclitaxel alone): about 92%
inhibition at 0.005 µM (MDA-MB-435 eb cells [6]): < 10%
